Several values for one entry are separate records, joined by “and”; a condition that tells them apart may be missing. Equal values may be shown once. Read-outs that look alike come from different tables or passages of the source.
Assays:
recombinant perforin [1] = biological target: T1, recombinant perforin (Mus musculus, UniProt P10820); test: Inhibition of perforin-mediated lysis of Jurkat cells (51Cr release); type: cell-based
T1 sequence (P10820 21-554): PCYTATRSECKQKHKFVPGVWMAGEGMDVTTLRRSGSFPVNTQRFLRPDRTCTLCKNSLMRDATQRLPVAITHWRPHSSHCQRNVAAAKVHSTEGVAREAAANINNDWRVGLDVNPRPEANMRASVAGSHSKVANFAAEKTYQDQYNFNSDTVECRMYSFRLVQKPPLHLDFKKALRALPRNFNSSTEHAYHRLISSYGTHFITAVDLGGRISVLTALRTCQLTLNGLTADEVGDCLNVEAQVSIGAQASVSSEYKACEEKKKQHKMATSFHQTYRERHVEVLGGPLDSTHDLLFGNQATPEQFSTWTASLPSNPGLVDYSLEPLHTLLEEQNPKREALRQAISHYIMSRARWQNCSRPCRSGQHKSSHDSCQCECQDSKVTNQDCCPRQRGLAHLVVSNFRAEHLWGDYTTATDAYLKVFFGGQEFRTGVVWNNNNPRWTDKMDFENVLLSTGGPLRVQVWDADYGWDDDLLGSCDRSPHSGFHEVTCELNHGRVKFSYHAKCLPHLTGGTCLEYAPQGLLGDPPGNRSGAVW
Description: The ability of the compounds to inhibit the lysis of nucleated (Jurkat T lymphoma) cells in the presence of 0.1% BSA, as measured by release of ^51Cr was measured. Jurkat target cells were labelled by incubation in medium with 100 µCi ^51Cr for one hour. The cells were then washed three times to remove unincorporated isotope and re-suspended at 1 x 10^5 cells per mL in RPMI buffer supplemented with 0.1% BSA. […] The supernatant was collected and assessed for its radioactive content on a gamma counter (Wallac Wizard 1470 automatic gamma counter). Each data point was performed in triplicate and an IC50 was calculated from the range of concentrations described to above.

recombinant perforin [2] = biological target: T1, recombinant perforin; test: as above; type: cell-based; conditions: read-out: Inhibitory activity in Jurkat assay at 20 μM with serum
recombinant perforin [3] = biological target: T1, recombinant perforin; conditions: diarylthiophene series; cited from earlier work
[4] = Toxicity to KHYG-1 NK cells (Trypan blue exclusion); type: cell-based, human; conditions: human, KHYG-1 NK cells, after 24 h, ± SEM
Description: (§1) The use of NK cells to secrete perforin rather than employing isolated recombinant protein is a more stringent test of a compound’s ability to block lytic activity, requiring the inhibitor to access the synaptic cleft between effector (NK) and target cells where perforin is released.
(§2) The toxicity assay was carried out in exactly the same manner as the killing assay above, but instead of adding the labelled K562 target cells, 100 μL of RPMI 0.1% BSA was added. Cells were incubated for 4 h at 37 °C and then washed ×3 in RPMI + 0.1% BSA. […] Trypan blue was added to each well. Viable (clear) cells and total (clear + blue) cells were counted, and the percentage of viable cells was calculated compared to DMSO treated cell control (% viability).

KHYG-1 NK cells = test: as above; type: cell-based, human; conditions: after 24 h, ± SEM, 20 µM
Description: as §1, §2

[5] = Solubility of the sodium salt in water; type: physicochemical
[6] = Stability in solution (water); type: physicochemical; conditions: sodium salt, 24 h at 20 °C in water
[7] = Microsome stability, mouse; type: in vitro ADME; conditions: sodium salt, mouse microsomes, 30 min
Microsome stability, rat = type: in vitro ADME; conditions: sodium salt, rat microsomes, 30 min
[8] = Microsome stability, human; type: in vitro ADME; conditions: sodium salt, human microsomes, 30 min
[9] = Plasma protein binding by equilibrium dialysis; type: in vitro ADME; conditions: mouse plasma, 6 h incubation at 37 °C
[10] = biological target: T2, perforin delivered by KHYG-1 NK cells (Homo sapiens, UniProt P14222); test: KHYG-1 cytotoxicity assay: inhibition of NK cell lysis of 51Cr-labelled K562 target cells; type: cell-based; conditions: lysis of 51Cr-labelled K562 cells co-incubated with KHYG-1 NK cells, vs untreated control, ± SEM
T2 construct: The use of NK cells to secrete perforin rather than employing isolated recombinant protein is a more stringent test; endogenous in cells; host or cells: KHYG-1 NK cells (effector), K562 target cells
T2 sequence (P14222 22-555): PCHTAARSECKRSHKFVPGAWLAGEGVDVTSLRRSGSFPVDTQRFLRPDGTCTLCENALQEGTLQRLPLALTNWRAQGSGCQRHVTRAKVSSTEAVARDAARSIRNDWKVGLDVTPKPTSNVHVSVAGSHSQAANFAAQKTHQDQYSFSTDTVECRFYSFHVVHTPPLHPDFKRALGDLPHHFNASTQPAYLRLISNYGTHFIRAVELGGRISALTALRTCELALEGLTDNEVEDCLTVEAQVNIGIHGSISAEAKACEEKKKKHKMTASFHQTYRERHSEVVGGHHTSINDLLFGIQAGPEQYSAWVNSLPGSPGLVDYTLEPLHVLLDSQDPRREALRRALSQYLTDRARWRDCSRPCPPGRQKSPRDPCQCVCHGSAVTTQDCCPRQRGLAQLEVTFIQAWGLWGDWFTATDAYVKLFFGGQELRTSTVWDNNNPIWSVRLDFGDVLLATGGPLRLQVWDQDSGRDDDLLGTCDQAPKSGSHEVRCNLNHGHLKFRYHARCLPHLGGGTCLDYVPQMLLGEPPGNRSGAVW
Description: as §1
Test compounds are then added (50 µL) at a final concentration of 20µM and incubated at RT for 20 min. ^51Cr-labelled K562 leukemia target cells (50 µL, 2 x 10^5 cells/mL) are then added to each well and incubated at 37 °C for 4 hours. ^51Cr release is assayed using a Skatron Harvesting Press and radioactivity estimated on a Wallac Wizard 1470 Automatic Gamma counter (Turku, Finland). The inhibitory function is then determined by identifying the number of untreated or inhibitor treated effector cells required to kill the same number of targets. The percent inhibition is calculated by the formula: […]
Where x is the point the inhibitor intersects with the DMSO on a curve.

[11] = biological target: Class I PI3-kinase enzyme p110α/p85 (Homo sapiens, UniProt P42336); test: PI3K-α counterscreening; type: biochemical; conditions: recombinant PI3-kinase, phosphatidylinositol substrate, [33P]-ATP; read-out: PI3Kα IC50
Description: Given that the pyridine-3-yl-2,4-difluorobenzenesulphonamide subunit is derived from a structure that was optimised to target PI3Kα, it was also considered prudent to counter-screen for off-target effects related to this pathway.
Compounds were evaluated for their ability to inhibit the Class I PI3-kinase enzyme p110α/p85.

[12] = recombinant perforin, 0.1% BSA, 51Cr release, 4 h; average of at least two determinations; read-out: Inhibition of Jurkat cell lysis IC50
[13] = read-out: Inhibition of Jurkat cell lysis IC50; recombinant perforin, 0.1% BSA, 51Cr release, 4 h; average of at least two determinations
[14] = sodium salt in water at room temperature

Sequence of Class I PI3-kinase enzyme p110α/p85 (P42336 whole entry): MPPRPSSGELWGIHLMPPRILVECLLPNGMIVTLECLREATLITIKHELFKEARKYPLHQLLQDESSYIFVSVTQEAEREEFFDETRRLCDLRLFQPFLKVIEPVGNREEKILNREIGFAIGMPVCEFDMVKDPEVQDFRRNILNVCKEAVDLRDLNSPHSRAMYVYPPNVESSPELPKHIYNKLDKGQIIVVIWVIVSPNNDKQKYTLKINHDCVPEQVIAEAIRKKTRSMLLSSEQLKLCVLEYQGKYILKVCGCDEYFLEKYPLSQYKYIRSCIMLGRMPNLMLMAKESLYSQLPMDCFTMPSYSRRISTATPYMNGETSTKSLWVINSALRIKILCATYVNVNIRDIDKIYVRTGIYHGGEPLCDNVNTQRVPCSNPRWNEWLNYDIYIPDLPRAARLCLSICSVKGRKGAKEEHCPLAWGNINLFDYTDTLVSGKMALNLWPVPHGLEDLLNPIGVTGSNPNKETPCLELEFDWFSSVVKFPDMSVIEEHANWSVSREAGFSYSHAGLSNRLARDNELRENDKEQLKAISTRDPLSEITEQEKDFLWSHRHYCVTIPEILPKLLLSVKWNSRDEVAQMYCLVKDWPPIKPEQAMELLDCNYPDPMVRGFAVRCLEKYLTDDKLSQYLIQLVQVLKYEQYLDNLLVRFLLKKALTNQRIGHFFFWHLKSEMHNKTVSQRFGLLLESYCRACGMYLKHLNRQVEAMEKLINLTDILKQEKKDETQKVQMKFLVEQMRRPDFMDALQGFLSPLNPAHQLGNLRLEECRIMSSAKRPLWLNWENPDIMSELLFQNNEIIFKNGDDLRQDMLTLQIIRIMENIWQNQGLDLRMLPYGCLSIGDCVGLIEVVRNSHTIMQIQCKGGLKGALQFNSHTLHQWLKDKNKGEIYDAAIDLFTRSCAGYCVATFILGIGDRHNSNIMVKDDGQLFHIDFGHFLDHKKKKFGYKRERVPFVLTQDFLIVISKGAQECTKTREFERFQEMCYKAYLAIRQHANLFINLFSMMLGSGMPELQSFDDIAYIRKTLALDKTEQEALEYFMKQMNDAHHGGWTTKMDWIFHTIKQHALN
Sequence of Class I PI3-kinase enzyme p110α/p85 (P27986 whole entry partner): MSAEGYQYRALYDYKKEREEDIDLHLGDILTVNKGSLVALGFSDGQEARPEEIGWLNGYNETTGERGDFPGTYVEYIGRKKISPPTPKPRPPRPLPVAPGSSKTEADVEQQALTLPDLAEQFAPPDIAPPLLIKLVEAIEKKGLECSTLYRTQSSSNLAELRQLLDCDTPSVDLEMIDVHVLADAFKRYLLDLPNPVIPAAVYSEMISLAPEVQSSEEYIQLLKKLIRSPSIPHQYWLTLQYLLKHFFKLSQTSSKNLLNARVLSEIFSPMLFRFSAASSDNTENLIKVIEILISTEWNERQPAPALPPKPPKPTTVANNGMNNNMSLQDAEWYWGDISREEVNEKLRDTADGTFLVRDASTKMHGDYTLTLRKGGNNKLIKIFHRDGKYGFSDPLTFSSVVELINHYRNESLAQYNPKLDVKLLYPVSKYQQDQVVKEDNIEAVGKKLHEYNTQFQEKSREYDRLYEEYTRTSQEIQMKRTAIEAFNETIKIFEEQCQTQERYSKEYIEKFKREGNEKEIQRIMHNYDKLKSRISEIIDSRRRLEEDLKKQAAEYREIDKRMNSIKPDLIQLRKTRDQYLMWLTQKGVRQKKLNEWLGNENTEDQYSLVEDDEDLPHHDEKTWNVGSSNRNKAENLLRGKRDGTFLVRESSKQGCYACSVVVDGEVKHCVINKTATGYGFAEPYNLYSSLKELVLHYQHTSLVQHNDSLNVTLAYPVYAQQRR

## CC1c2cc(-c3ccc(-c4cncc(NS(=O)(=O)c5ccc(F)cc5F)c4)s3)ccc2C(=O)N1C (stereo not drawn) [Compound 13]
Recombinant perforin [1]; recombinant perforin, 0.1% BSA, 51Cr release, 4 h; average of at least two determinations
  Inhibition of Jurkat cell lysis IC50: poor activity
Recombinant perforin [1]; [12]
  IC50: > 20 µM

## CN1C(=O)Cc2cc(-c3ccc(-c4cncc(NS(=O)(=O)c5ccc(F)cc5F)c4)s3)ccc21 [Compound 15]
Recombinant perforin [1]; [13]
  IC50: 10.3 µM

## O=S(=O)(Nc1cncc(-c2ccc(-c3ccc4[nH]ccc4c3)s2)c1)c1ccc(F)cc1F [Compound 16]
Recombinant perforin [1]; Jurkat, read-out: Inhibitory activity in Jurkat assay at 20 μM
  inhibition at 20 µM: 88%
Recombinant perforin [2]
  inhibition at 20 µM: 32%

## CC(=O)c1cn(C)c2ccc(-c3ccc(-c4cncc(NS(=O)(=O)c5ccc(F)cc5F)c4)s3)cc12 [Compound 18]
Recombinant perforin [1]; [13]
  IC50: 11.2 µM

## CS(=O)(=O)Nc1ccc(-c2ccc(-c3ccc4c(c3)COC4=O)s2)cc1 [Compound 2]
Recombinant perforin [3]
  Inhibition of isolated perforin: sub-micromolar

## O=C1NCCc2ccc(-c3ccc(-c4cncc(NS(=O)(=O)c5ccc(F)cc5F)c4)s3)cc21 [Compound 11]
Recombinant perforin [1]; [12]
  IC50: > 20 µM

## CN1CCc2cc(-c3ccc(-c4cncc(NS(=O)(=O)c5ccc(F)cc5F)c4)s3)ccc2C1=O [Compound 10]
Recombinant perforin [1]; [12]
  IC50: > 20 µM

## CN1Cc2ccc(-c3ccc(-c4cncc(NS(=O)(=O)c5ccc(F)cc5F)c4)s3)cc2C1=O [Compound 8]
Recombinant perforin [1]; [13]
  IC50: 10.4 µM

## CN1Cc2cc(-c3ccc(-c4cncc(NS(=O)(=O)c5ccc(F)cc5F)c4)nc3)ccc2C1=O [Compound 22]
Recombinant perforin [1]; [13]
  IC50: 8.17 µM

## O=C1NCCc2cc(-c3ccc(-c4cncc(NS(=O)(=O)c5ccc(F)cc5F)c4)s3)ccc21 [Compound 9]
Recombinant perforin [1]; [12]
  IC50: > 20 µM

## CN1Cc2cc(-c3ncc(-c4cncc(NS(=O)(=O)c5ccc(F)cc5F)c4)s3)ccc2C1=O [Compound 20]
Recombinant perforin [1]; [13]
  IC50: 17.1 µM

## O=C1NCc2cc(-c3ccc(-c4cncc(NS(=O)(=O)c5ccc(F)cc5F)c4)s3)ccc21 [Compound 6]
[4]
  viability at 24 h, 20 µM: > 90%
KHYG-1 NK cells
  KHYG-1 viability (% at 20 μM): 94 ± 4.0%
[5]; sodium salt in water
  solubility: 10600 µg/mL
[5]; [14]
  solubility: 10600 µg/mL
[6]
  Stability in solution (% parent remaining): 82.0%
[7]
  Microsome stability (% parent remaining), Mouse: 92%
Microsome stability, rat
  Microsome stability (% parent remaining), Rat: 88%
[8]
  Microsome stability (% parent remaining), Human: 85%
[9]
  fraction unbound at 6 h: 0.003

## CN1Cc2cc(-c3ccc(-c4cncc(NS(=O)(=O)c5ccc(F)cc5F)c4)o3)ccc2C1=O [Compound 19]
Recombinant perforin [1]; [12]
  IC50: 15 µM

## CN1Cc2cc(-c3nc(-c4cncc(NS(=O)(=O)c5ccc(F)cc5F)c4)cs3)ccc2C1=O [Compound 21]
Recombinant perforin [1]; [12]
  IC50: > 20 µM

## O=C1Cc2cc(-c3ccc(-c4cncc(NS(=O)(=O)c5ccc(F)cc5F)c4)s3)ccc2N1 [Compound 14]
Recombinant perforin [1]; compared with compound 15
  Fold superior to N-methyl partner 15 (Jurkat IC50): ~2 fold
Recombinant perforin [1]; [13]
  IC50: 5.18 µM
[4]
  viability at 24 h, 20 µM: > 90%
KHYG-1 NK cells
  KHYG-1 viability (% at 20 μM): 96 ± 1.0%
[5]; sodium salt in water
  solubility: 390 µg/mL
[5]; [14]
  solubility: 392 µg/mL
[6]
  Stability in solution (% parent remaining): 88.7%
[7]
  Microsome stability (% parent remaining), Mouse: 84%
Microsome stability, rat
  Microsome stability (% parent remaining), Rat: 79%
[8]
  Microsome stability (% parent remaining), Human: 71%
[9]
  fraction unbound at 6 h: 0.0009

## NC(=O)c1ccc(-c2ccc(-c3ccc4c(c3)COC4=O)s2)cn1 [Compound 3]
Recombinant perforin [3]
  Inhibition of isolated perforin: sub-micromolar

## Cn1ccc2cc(-c3ccc(-c4cncc(NS(=O)(=O)c5ccc(F)cc5F)c4)s3)ccc21 [Compound 17]
Recombinant perforin [1]; [13]
  IC50: 7.58 µM

## O=C1NCc2ccc(-c3ccc(-c4cncc(NS(=O)(=O)c5ccc(F)cc5F)c4)s3)cc21 [Compound 7]
Recombinant perforin [1]; [13]
  IC50: 4.15 µM
[4]
  viability at 24 h, 20 µM: > 90%
KHYG-1 NK cells
  KHYG-1 viability (% at 20 μM): 96 ± 6.0%
[5]; sodium salt in water
  solubility: 12900 µg/mL
[5]; [14]
  solubility: 12900 µg/mL
[6]
  Stability in solution (% parent remaining): 97% and 97.3%
[7]
  Microsome stability (% parent remaining), Mouse: 42%
Microsome stability, rat
  Microsome stability (% parent remaining), Rat: 82%
[8]
  Microsome stability (% parent remaining), Human: 83%
[9]
  fraction unbound at 6 h: 0.0003

## CN1Cc2cc(-c3ccc(-c4cncc(NS(=O)(=O)c5ccc(F)cc5F)c4)s3)ccc2C1=O [Compound 5]
[10]
  inhibition at 20 µM: 88 ± 3.8%
[5]; sodium salt in water
  solubility: 1100 µg/mL
[5]; [14]
  solubility: 1080 µg/mL
[6]
  Stability in solution (% parent remaining): 82% and 81.5%
[8]
  Microsome stability (% parent remaining), Human: 58%
[9]
  fraction unbound at 6 h: 0.0011
[11]
  IC50: > 6.25 µM

— article PMC5303009, “Benzenesulphonamide inhibitors of the cytolytic protein perforin” (Bioorganic & Medicinal Chemistry Letters, 2017)
